Legend:
Type in all cases: cell-based
NCI-H522 = experiment: Cell viability assay, NCI-H522; details: Homo sapiens, 72 h; NCI-H522, NSCLC, 3 days; read-out: Cellular Anti-proliferation activity (IC50)
Method: (§1) Cells were treated with CDK4/6 inhibitors palbociclib, ribociclib, or abemaciclib, or heterobifunctional compounds CPD-002 or CPD-031 following a 9-point serial dilution for 3 days.
(§2) Cells were seeded at a density of 2,000-5,000 cells per well in 96-well assay plates and treated with test compounds following a 10-point serial dilution for 3-6 days. Cell viability was determined using the CellTiter-Lumi assay kit according to the manufacturer's instructions. The dose-response curves were determined and IC50 values were calculated using the GraphPad Prism software following a nonlinear regression (least squares fit) method. Data presented was mean±standard deviation (SD) unless otherwise indicated.

MDA-MB-468 = experiment: Cell viability assay, MDA-MB-468; details: Homo sapiens, 72 h; MDA-MB-468, TNBC, 3 days; read-out: Cellular Anti-proliferation activity (IC50)
Method: as §1, §2

KURAMOCHI = experiment: Cell viability assay, KURAMOCHI; details: 72 h, OC, 3 days, read-out: Cellular Anti-proliferation activity (IC50)
Method: as §1, §2

MDA-MB-157 = experiment: Cell viability assay, MDA-MB-157; details: Homo sapiens, 72 h; MDA-MB-157, TNBC, 3 days; read-out: Cellular Anti-proliferation activity (IC50)
Method: as §1, §2

MDA-MB-453 = experiment: Cell viability assay, MDA-MB-453; details: Homo sapiens, 72 h; MDA-MB-453, TNBC, 3 days; read-out: Cellular Anti-proliferation activity (IC50)
Method: as §1, §2

BT-549 = experiment: Cell viability assay, BT-549; details: Homo sapiens, 72 h; BT-549, TNBC, 3 days; read-out: Cellular Anti-proliferation activity (IC50)
Method: as §1, §2

Calu-1 = experiment: Cell viability assay, Calu-1; details: Homo sapiens, 72 h; Calu-1, NSCLC, 3 days; read-out: Cellular Anti-proliferation activity (IC50)
Method: as §1, §2

MIA PaCa-2 = experiment: Cell viability assay, MIA PaCa-2; details: Homo sapiens, 72 h; MIA PaCa-2, PC, 3 days; read-out: Cellular Anti-proliferation activity (IC50)
Method: as §1, §2

Hs578T = experiment: Cell viability assay, Hs578T; details: Homo sapiens, Hs-578T, 72 h, TNBC, 3 days, read-out: Cellular Anti-proliferation activity (IC50)
Method: as §1, §2

OVCAR3 = experiment: Cell viability assay, OVCAR3; details: Homo sapiens, OVCAR-3, 72 h; OVCAR3, OC, 3 days; read-out: Cellular Anti-proliferation activity (IC50)
Method: as §1, §2

Cal-62 = experiment: Cell viability assay, Cal-62; details: Homo sapiens, 72 h; Cal-62, TC, 3 days; read-out: Cellular Anti-proliferation activity (IC50)
Method: as §1, §2

T47D cells = experiment: Flow cytometric analysis of Annexin V/7-AAD stained T47D cells; details: 6 days
Method: ER^+ breast cancer T47D cells were treated with DMSO, palbociclib, heterobifunctional compound CPD-343, or negative control compound CPD-380 for 6 days at doses approximating IC50 and IC90 concentrations determined in FIGS. 10A and 13. Cells were harvested by trypsinization, staining was carried out using the Annexin V Apoptosis Detection Kit. The percentages of early apoptotic (Annexin V^+7-AAD^−, lower right quadrant), late apoptotic (Annexin V^+7-AAD^+, upper right quadrant) and necrotic cells (Annexin V-7-AAD^+, upper left quadrant) are indicated on dot plots. […] Furthermore, we developed one ER^+ breast cancer T47D model with acquired resistance after long period of treatment with 1 μM palbociclib (over IC90). Cells were deemed resistant when growing in the presence of palbo at the same rate as parental cells. Palbo resistance was determined by CellTiter-Lumi cell viability assay.

Question: What does the source list for `CN(C)C(=O)c1cc2cnc(Nc3ccc(N4CCNCC4)cn3)nc2n1C1CCCC1` [ribociclib]?
Answer: IC50 (NCI-H522): > 10 µM; IC50 (MDA-MB-468): > 10 µM; IC50 (KURAMOCHI): > 10 µM; IC50 (MDA-MB-157): > 10 µM; IC50 (MDA-MB-453): > 3 µM; IC50 (BT-549): > 10 µM; IC50 (Calu-1): > 10 µM; IC50 (MIA PaCa-2): > 3 µM; IC50 (Hs578T): > 10 µM; IC50 (OVCAR3): > 10 µM; IC50 (Cal-62): > 10 µM

Question: Which results are given for `CCN1CCN(Cc2ccc(Nc3ncc(F)c(-c4cc(F)c5nc(C)n(C(C)C)c5c4)n3)nc2)CC1` [abemaciclib]?
Answer: IC50 (NCI-H522): > 3 µM; IC50 (MDA-MB-468): 3.09 µM; IC50 (KURAMOCHI): 2.5 µM; IC50 (MDA-MB-157): > 10 µM; IC50 (MDA-MB-453): 0.03 µM; IC50 (BT-549): 2.07 µM; IC50 (Calu-1): 29 µM; IC50 (MIA PaCa-2): 0.55 µM; IC50 (Hs578T): 1.2 µM; IC50 (OVCAR3): > 10 µM; IC50 (Cal-62): 2.12 µM

Question: Which results are given for `CC(=O)c1c(C)c2cnc(Nc3ccc(N4CCNCC4)cn3)nc2n(C2CCCC2)c1=O` [Palbociclib, palbociclib]?
Answer: IC50 (NCI-H522): > 10 µM; IC50 (MDA-MB-468): > 10 µM; IC50 (KURAMOCHI): > 10 µM; IC50 (MDA-MB-157): > 10 µM; IC50 (MDA-MB-453): 2.7 µM; IC50 (BT-549): > 10 µM; IC50 (Calu-1): > 10 µM; IC50 (MIA PaCa-2): > 3 µM; Annexin V+ population (T47D cells; 100 nM): 15.9%; Annexin V+ population (T47D cells; 1 μM): 26.1%; IC50 (Hs578T): > 10 µM; IC50 (OVCAR3): > 10 µM; IC50 (Cal-62): > 10 µM

— US20250235543A1, “MODIFIED PROTEINS AND PROTEIN DEGRADERS” (Cullgen (Shanghai), Inc., priority 2021, published 2025)
